Usually melting point stands for the temperature, or range, at which the solid turns liquid. `COc1cc(C)c(C(=O)c2c(OC)cccc2C(F)(F)F)c(OC)c1OC` yielded a melting point of 69 to 70 °C. In the case of `CC(=O)NCC(=O)N(C)c1ccc(Cl)c(COc2cccn3c(Br)c(C)nc23)c1Cl` it was 187 to 189 °C. `COC(=O)C=Cc1cc(O)c(O)c([N+](=O)[O-])c1` showed a melting point of 186 to 187 °C.

For `Oc1ccc(Cc2ncc[nH]2)cc1`, the melting point was 188 to 190 °C. Under `CCCCCCCCOc1cc(-c2cccc(C(F)(F)F)c2)c(OCC(=O)O)c(-c2cccc(C(F)(F)F)c2)c1` stands 75 to 77 °C; under `Clc1cc2nc(CBr)c(CBr)nc2cc1Cl`, 154 to 156 °C.

`CCCC(=O)Nc1cc(/C=C/C(=O)OC)n(C)c1` returned a melting point of 109 to 110 °C. `N#Cc1cc([N+](=O)[O-])ccc1N1CCC(N2CCCCC2)CC1` registered a melting point of 134 to 135 °C. Take `COc1ccccc1-n1cnc2c(C(N)=O)nc(-c3cccc(O)c3)nc21`: the melting point is 230 to 231 °C.

The compound `O=c1c2cc(Cl)ccc2nc2n1CCN2Cc1ccccc1Cl` yielded a melting point of 173 to 174 °C. In the case of `CC(=N)Nc1cccc(C(=N)N)c1` it was 263 to 265 °C.

As for `CN(C)c1ccc(NC(=O)N(C[C@H]2CCC[C@H](CN(C(=O)Nc3ccc(N(C)C)cc3)C3CCCCC3)C2)C2CCCCC2)cc1` (relative stereo), the melting point is 145 to 146 °C.

Compound `COc1ccc(N2CCN(c3c(C)c(C)c4c(c3C)C(O)C(C)(C)O4)CC2)cc1OC` (stereo unspecified) came in with a melting point of 150 to 151 °C.

Compound `O=C(Nc1ccc(C(F)(F)F)cc1)NC1CCN(C(=O)c2cccnc2)CC1` returned a melting point of 213 to 217 °C.

Compound `Cc1cccc(NC(c2cccc(O)c2)c2ccc3cccnc3c2O)n1` (stereo unspecified) yielded a melting point of 187 to 189 °C. Under `Cn1nnc(-c2ccc(C=Cc3ccc(-c4nc5ccccc5o4)cc3)cc2)c1-c1nc2ccccc2o1` stands 246 to 249 °C. `CCCCc1nc2cc(C)c(C)cc2n1Cc1ccc(C(=O)O)cc1`: the melting point came out at 220 °C. As to `CC(=O)NCc1ccc(CN2CCN(c3ccncc3)CC2)cc1`, the melting point lay within 164 to 166 °C. Under `O=C(Nc1nc(-c2ccco2)c(C(=O)C2CCOCC2)s1)c1ccccc1OC(F)(F)F` stands 131 to 134 °C. Turning to `COc1cc(-c2ccccc2)c(C)cc1CC(=O)O`, the melting point lay in the range of 127 to 128 °C.

Regarding `C=CCOc1cccn2c(=O)cc(C)nc12`, the melting point lay in the range of 113 to 115 °C.

Compound `COc1cc(CC(=O)O)ccc1OCCc1ccccc1` yielded a melting point of 97 to 100 °C.

In turn, `COC1(c2cccc(S(=O)(=O)c3ccc4c(c3)C(C)(C)C(=O)N4C)c2)CCOCC1` displayed a melting point of 164 to 166 °C. Compound `CCc1cccc(-c2cnc3[nH]cc(C(=O)C(C)(C)C)c3n2)c1` gave a melting point of 199 to 200 °C. Turning to `C=C(CC(=O)c1ccc(Cl)c(Cl)c1)C(=O)O`, the melting point was in the range of 156 to 157 °C. In turn, `O=c1oc(-c2ccccc2)cc(O)c1Sc1cccc2ccccc12` showed a melting point of 242 to 243 °C. With `COc1ncc(Cl)cc1C1OC(=O)NC1=O` (stereo unspecified), the melting point lay in the range of 199 to 204 °C. On to `CCN(CC)c1ccc2cc(C(=O)OCCCCCCO)c(=O)oc2c1`, for which the melting point fell in the range of 85 to 86 °C.

Turning to `CC12CCC3c4ccc(C(=O)O)cc4CCC3C1CCC2C(=O)c1ccccc1` (stereo unspecified), the melting point lay in the range of 210 to 215 °C.

In turn, `O=C1CCC2(CCC(=O)c3cc(Cl)ccc32)C(=O)N1` (stereo unspecified) had a melting point of 282 to 284 °C.

For `CCCOc1nn(Cc2ccc(OCc3nc(-c4ccccc4)oc3C)cc2)cc1CCC(=O)O`, the melting point was 108 to 109 °C. Take `COc1ccc2sc(Cc3ccc(Cl)cc3)nc2c1`: the melting point lay within 83 to 85 °C.

Consider `COc1ccnc(CCc2nc3cc(-c4ccc(S(=O)(=O)N5CCC(C)CC5)cc4)cnc3[nH]2)c1`, for which the melting point is 186 to 188 °C.

`CCCS(=O)(=O)c1ccc(NS(=O)(=O)c2cccs2)c2[nH]c(C(=O)NCCSC(c3ccccc3)(c3ccccc3)c3ccccc3)cc12`: the melting point was 200 to 201 °C. In the case of `Cc1ccc(OCCOc2cccc(C)c2)cc1`, the melting point was 94 °C. As to `CC(=O)SCCC(=O)N1CCN(C)CC1C(=O)O` (stereo unspecified), the melting point is 92 to 98 °C. Turning to `O=C(O)[C@@H]1C[C@H](Cc2ccc(Cl)cc2)CN1`, the melting point fell in the range of 233 to 235 °C. `CCOC(=O)c1sc2nc(SCCCN3CCN(c4ccc5ccccc5n4)CC3)[nH]c(=O)c2c1C` returned a melting point of 200 to 201 °C.

On to `NC(=O)c1nnn(Cc2ccccc2F)c1C(N)=O`, for which the melting point is 49 to 51 °C. Turning to `Oc1ccc(C(F)(F)F)cc1-n1nc2ccccc2n1`, the melting point lay in the range of 119 to 120 °C.

In turn, `CC12CCC(C1)C1(C)Oc3ccc(C(=O)/C=C/c4cc(C(=O)O)cs4)cc3C21C` (stereo unspecified) came in with a melting point of 226 to 228 °C. In turn, `C[C@H](Cc1ccc2c(c1)OC(C(=O)O)(C(=O)OCCc1ccccc1)O2)NC[C@H](O)c1cccc(Cl)c1` (stereo partly specified) gave a melting point of 75 to 82 °C. The compound `O=Cc1cccc(CF)n1` yielded a melting point of 60 °C. In the case of `COC(=O)C(C)(C)S(=O)(=O)N1CC=C(c2ccc(Br)c(C)c2)CC1` it was 100 to 101 °C; in that of `CC(C)(C)OC(=O)N[C@@H](Cc1ccccc1)[C@@H](O)CO`, 95 to 96 °C; in that of `COc1ccc(CN(C)CCCCc2ccc(NC(=O)c3cccc4c(=O)cc(-c5ccccc5)[nH]c34)cc2)cc1OC`, 171 °C. `CCOCc1nc2c(N)nc3cc(OCc4ccccc4)ccc3c2n1CC(C)(C)NS(C)(=O)=O` showed a melting point of 264 to 266 °C. In the case of `CCCC(COS(C)(=O)=O)(OC(C)C)c1ccc(Cl)cc1Cl` (stereo unspecified) it was 58 to 61 °C; in that of `N#Cc1ccc(NC(=O)c2cccc(OCc3cc(F)cc(F)c3)c2)cc1`, 185 to 187 °C; in that of `O=C(O)CCCCCSC1c2ccccc2COc2ccc(OCc3ccc4ccc(Cl)cc4n3)cc21` (stereo unspecified), 160 to 166 °C. Compound `CC(C)(C)c1cc(/C=C/c2n[nH]c(=S)s2)cc(C(C)(C)C)c1O` came in with a melting point of 248 to 249 °C.

In turn, `Cc1ccc(-c2cc(S(=O)(=O)c3ccc(N)cc3)cc(N3CCCC3)n2)cc1` registered a melting point of 250 to 251 °C. On to `CCOCCNc1nc(S)nc(N[C@@H](C)c2ccccc2)n1`, for which the melting point turned out to be 53 °C.

`CC(=O)Nc1nc2c(Oc3cc(-c4ccc(C(F)(F)F)nc4NC4CCN(C(C)C)C4)ncn3)cccc2s1` (stereo unspecified) showed a melting point of 140 to 141 °C.

For `COc1ccc(C(=O)C(CCc2cccc(OC)c2)c2ccccc2)cc1` (stereo unspecified), the melting point was in the range of 79 to 85 °C.

In turn, `O=C1c2ccccc2C(=O)N1SN1C(=O)c2ccccc2C1=O` came in with a melting point of 301 to 315 °C. As to `O=C1NC(=O)C(c2ccc(Oc3ccc(Cl)cc3)cc2)(N2CCN(CC(O)CO)CC2)C(=O)N1` (stereo unspecified), the melting point lay within 257 to 258 °C.

`N[C@H](C(=O)O)[C@H](S)c1ccccc1` returned a melting point of 107 to 108 °C. In the case of `c1ccc(CP(Cc2ccccc2)Cc2ccccc2-c2ccccc2CP(Cc2ccccc2)Cc2ccccc2)cc1` it was 163 to 167 °C. For `NCC1Cc2cc(-c3ccccc3F)cc(F)c2O1` (stereo unspecified), the melting point is over 250 °C.

Consider `CCOC(=O)Cc1ccc(NC(=O)C(COS(C)(=O)=O)NS(=O)(=O)c2ccc(F)cc2)cc1` (racemic), for which the melting point was in the range of 81 to 82 °C. In turn, `CN1CC[C@@H]2CC(=O)c3cc(-c4ccccc4)ccc3[C@@H]2C1` (relative stereo) registered a melting point of over 250 °C. Compound `CC(C)(C)[Si](C)(C)OC(=O)O[Si](C)(C)C(C)(C)C` had a melting point of 128 to 130 °C. On to `COC(=O)C(C)(C)CCOc1ccc(C2=NNC(=O)CC2)cc1Cl`, for which the melting point was 109 to 110 °C. The compound `O[C@H](COc1ccccc1C=Cc1nc2ccccc2s1)CN1CCC(c2ccc3ccccc3c2)CC1` showed a melting point of 125 to 127 °C. The compound `Cn1c2c(c3cc(OCc4ccccc4)ccc31)CC(C(N)=O)C2` (stereo unspecified) had a melting point of 145 to 148 °C. In the case of `CC(C)(C)OC(=O)NCc1cccc(C(=O)O)c1` it was 127 to 128 °C; in that of `Cn1cc(C=CC(=O)NO)c([N+](=O)[O-])n1`, 172 to 174 °C; in that of `CC(=O)N(O)C(C)c1ccccc1Nc1c(Cl)ccc(C)c1Cl` (stereo unspecified), 185 to 187 °C.

For `CCOC(=O)c1cc2c(nc(C)n2C)c(O)c1CCC(O)c1ccccc1` (stereo unspecified), the melting point lay within 193 to 195 °C. Compound `CC(C)OC(=O)C1CCCn2c(C(=O)c3ccc(F)cc3)ccc21` (stereo unspecified) had a melting point of 92 °C. Under `COc1cccc(NC(=O)c2ccccc2C)c1` stands 142 to 143 °C; under `CCCCN(CCCC)C(=O)c1cc(C(C)(C)C)c(O)c(C(C)(C)C)c1`, 94 to 95 °C. The compound `COC(=O)c1cc(OC)c(OCc2ccccc2)cc1[N+](=O)[O-]` registered a melting point of 104 to 105 °C.

As for `C[C@H]1C=CC2=C[C@@H](O)C[C@H](O)[C@@H]2[C@H]1CC[C@@H]1C[C@@H](O)CC(=O)O1`, the melting point lay in the range of 161 to 163 °C. With `COc1ccc(-c2nc(N)ncc2-c2ccc(=O)n(C(C)C)n2)cc1`, the melting point worked out at 216 °C. In the case of `COc1cc(/C=C2/C(=O)OC[C@H]2Cc2cc(OC)c(OCc3ccc([N+](=O)[O-])cc3)c(OCc3ccc([N+](=O)[O-])cc3)c2)cc(OC)c1OC`, the melting point was 171 to 172 °C. Compound `CCOC(=O)C(=Cc1cccc(OC)c1)C(=O)OCC` came in with a melting point of 45 °C. Under `COc1ccccc1[C@H]1CC[C@@H](c2ccccc2)N1C(=O)CNC(=O)Nc1cccc(CC(=O)O)c1` (racemic) stands 140 °C. Take `C=C1CCc2onc(-c3ccccc3)c2C1=O`: the melting point fell in the range of 97 to 99 °C. `CC(C)c1ccc(C(=O)C2CCN(Cc3ccccc3)CC2)cc1` came in with a melting point of 76 to 77 °C. As for `C=CCc1ccc(C2=NNC(=O)CC2)cc1O`, the melting point is 175 to 178 °C. In the case of `COc1ccc(N2CCN(c3nc(NC(C)(C)C(C)(C)C)nc(NC(C)(C)C(C)(C)C)n3)CC2)cc1` it was 155 to 157 °C; in that of `N=C(NCc1cccnc1)N[N+](=O)[O-]`, 185 to 190 °C; in that of `N#Cc1ccc(NC(=O)C(=O)N2CCC(Cc3ccc(F)cc3)CC2)cc1`, 167 to 169 °C.

`NNC(=O)c1nc(CS(=O)(=O)c2ccc(Cl)cc2)no1` returned a melting point of 177 °C.

Values taken from a melting point compilation (Tetko et al.; mined from patent text by program, amines drawn as free bases though some values may be those of a salt).
